Measurements as given in US20110118220A1, “Composition of bifonazole and its use” (priority 2009, published 2011).

Columns and labels:
[1] = tested on: filamentous fungi represented by Trichophyton rubrum; test: In vitro antifungal activity (MIC), filamentous fungi; type: cell-based
From the text: (§1) To understand the in vivo and in vitro antibacterial effects, and to determine the in vivo and in vitro antibacterial activity through measuring the compound Bifonazole cream (Bifonazole/Triamcinolone acetonide acetate) on common pathogenic fungi of the minimum inhibitory concentration (MIC).

[2] = tested on: candida such as candida Albicans; test: In vitro antifungal activity (MIC), candida; type: cell-based
From the text: as §1

543 common fungi = test: In vitro pharmacodynamics of nine antifungal agents against 543 common fungi; type: cell-based
From the text: as §1

[3] = Long-term toxicity study by skin exposure; type: in vivo, rats; details: rat
From the text: Observe the abnormal reaction and degree of reversibility of the reaction caused by skin penetration through long-term exposure the animal's skin to subject drug.

[4] = Allergy study (repeated skin contact); type: in vivo
From the text: Observe the immune system response on skin after repeating skin contact animal skin with testing object.

SMILES | antibacterial activity on filamentous fungi [1] | antibacterial activity on candida [2] | antimicrobial activity against common fungal skin infections compared with econazole, ketoconazole, clotrimazole and miconazole (543 common fungi) | minimum toxic dosage on main target organ (liver) [3] [g/kg] | average response ([4]; 24 hours) | average response ([4]; 48 hours) | average response ([4]; 72 hours) | average response ([4]; by instance) | allergenic rate ([4]; in vivo) [%] | erythema and edema ([4]; in vivo)
c1ccc(-c2ccc(C(c3ccccc3)n3ccnc3)cc2)cc1 (stereo not shown) [Bifonazole] | strong antibacterial activity | a certain antibacterial activity | slightly stronger | 2 |  |  |  |  |  | 
O=[N+]([O-])c1ccc(Cl)c([N+](=O)[O-])c1 [2,4-dinitro-chlorobenzene] |  |  |  |  | 2.4 | 2.7 | 2.9 | 2.4 | 100 | 10 animals all have erythema and edema
